Test results as given in patent US20160039897A1, “COMPOUNDS AND METHODS FOR TREATING OBESITY AND CONTROLLING WEIGHT” (THE UNIVERSITY OF NORTH CAROLINA AT CHAPEL HILL, priority 2013, published 2016).
“Also recorded” adds a separate entry of the source. No end group written: not given here. mPEG‑maleimide = methoxy-PEG maleimide (couples to the cysteine thiol)

Legend:
[1] = system: primary preadipocytes from IGFBP-2−/− mice; assay: Differentiation of primary preadipocytes (immunoblot of adiponectin, aP2, PPARγ; Oil Red O staining); format: cell-based, mouse; conditions: for effect on differentiation marker expression / preadipocyte differentiation (in words): peptides 6 μg/ml, IGFBP-2 proteins 3 μg/ml, IGF-I 100 ng/ml, in differentiation medium; for % suppression of adiponectin: mean±SE, N=3; for relative potency as inhibitor of adipogenesis / preadipocyte differentiation (in words): comparison between peptides and proteins, immunoblot and Oil Red O
Procedure: Primary preadipocytes were isolated from epididymal fat pads of 6 week old IGFBP-2^−/− mice. The cells were cultured using a previously described method (Boney, C M et al., 1994). The fat pads were weighed and the tissue was digested with an equal volume (W/V) of collagenase type A (Roche Applied Science, Indianapolis, Ind.) in HEPES buffer (0.1M and 1.5% BSA) for 45 min at 37° C. Following complete digestion, the preadipocytes were separated from the stromal vascular cells by centrifugation at 500×g for 5 min. The pelleted cells were washed with DMEM containing 30 mM glucose (Gibco, Grand Island, N.Y.) and passed through a 100 μm mesh filter (BD Biosciences, Bedford, Mass.). The cells were then plated in 6-well plates (Falcon Corp., Franklin Lakes, N.J.) at a density of 1.2-1.5×10^4 cells/ml in DMEM containing 30 mM glucose supplemented with penicillin (100 U/ml), streptomycin (100 μg/ml), and 10% fetal bovine serum hereafter referred to as standard medium. The cultures had the medium changed every 2 days until they reached confluency. Two day post-confluent cells were then exposed to differentiation medium (serum free DMEM containing 0.5 mM IBMX, 1 μM dexamethasone, and 5 μg/mL insulin) and incubated for 2 days. Experimental treatments that were added to this medium included either wild type IGFBP-2 (3 μg/ml), HBD1 peptide (6 μg/ml), HBD1 control peptide (6 μg/ml), HBD2 peptide (6 μg/ml), HBD2 control peptide (6 μg/ml), HBD1 mutant IGFBP-2 (3 μg/ml) or the HBD2 mutant IGFBP-2 (3 μg/ml). Cultures were maintained for two additional days in the standard medium supplemented with 5 μg/ml insulin. Thereafter, the cultures were kept in the fresh standard medium without insulin for additional two days.
After treatment, the cells were rinsed with PBS for two times and fixed with 10% formalin for 30 min at room temperature. After rinsing with distilled water for twice, 100% propylene glycol (Poly Scientific, Bay Shore, N.Y.) was added and incubated for 5 min. Before adding Oil Red O solution (Poly Scientific, Bay Shore, N.Y.), propylene glycol was removed. The cultures were incubated for 10 min at 60° C. Removing Oil Red O solution, the cultures were incubated with 80% propylene glycol for 5 min, After incubation, the cultures were rinsed with tap water twice. Images were captured using an Olympus IX81 inverted microscope.
Differentiated adipocytes were lysed in ice-cold lysis buffer (Xi et al., 2008). After centrifugation at 14,000×g for 10 min, solubilized proteins were quantified by the Bradford method (Thermo Scientific, Rockford, Ill.). Equal protein amounts of lysates were loaded onto a SDS-polyacrylamide gel and the proteins were separated, then transferred to an Immobilon filter and visualized by immunoblotting using the appropriate antibody. The primary antibody dilutions that were used were 1:1000 for the anti-adiponectin antibody (Affinity BioReagents, Golden, Colo.), 1:500 for the anti-PPARγ antibody (Cell Signaling Technology Inc., Beverly, Mass.), 1:2000 for the anti-apt antibody (ProSci Inc., Poway, Calif.) and 1:5000 for the anti-β-actin antibody (Sigma Chemical Company, St. Louis, Mo.). The immune complexes were visualized using enhanced chemiluminescence (Thermo Fischer Scientific, Rockford, Ill.).
Preadipocytes were prepared from mice and grown in culture as described herein. The respective mouse and human peptides were added to cells and the cells were lysed and the lysates were run on SDS gels as described. Immunoblotting for adiponectin was carried as described. Three concentrations of each peptide, 0.7, 2.0 and 6.0 μg/ml, were compared. The results were expressed as % suppression mean±SE(N=3) and were as follows.
Cell culture of primary preadipocytes. Preadipocytes were isolated from epididymal fat pads of IGFBP-2^−/− mice. The cultures had the medium changed every 2 days until they reached confluency. […]

[2] = system: ovariectomized IGFBP-2 −/− mice; assay: Body composition MRI analysis in ovariectomized IGFBP-2 knockout mice; format: in vivo, mouse; conditions: IGFBP-2 −/− OVX mice, 2.5 mg/kg sc two days per week for four weeks; for Fat: 2.5 mg/kg
Procedure: (§1) There were 8 mice in each treatment group. C57B6 normal mice underwent ovaryectomy at age 8 weeks. They were then maintained on a normal Chow diet (6% fat) for three weeks. At that time they were treated with 2.5 mg/kg of the active peptide injected subcutaneously two days per week for four weeks. The peptide is the pegylated HBD-2 peptide described herein,
(§2) A second treatment group that had also undergone ovariectomy was treated with the identical concentration of a control peptide that contained the same amino acids but in a scrambled order. A third group underwent sham surgery wherein an incision was made and then closed and the ovaries were not removed. For comparison the response of mice that had had the IGF BP-2 gene deleted were treated in the same manner.
(§3) Eight mice underwent and were treated with the active peptide for four weeks as described for the normal animals. Eight additional mice received the control peptide and eight mice received the sham procedure. The animals were weighed weekly. After 4 weeks they underwent MRI analysis to determine body composition. Both lean mass and fat mass were quantified and the percent fat as a percent total body weight was determined mathematically.

IGFBP-2−/− mice [3] = assay: Body composition (fat and lean mass) by EchoMRI at weeks 0 and 12; format: in vivo, mouse; conditions: weeks 0 to 12; pegylated peptide 50 μg IP 3 times/week; mean±SE
Procedure: (§4) Body fat and lean muscle mass was measured at weeks 0 and 12 of treatment by magnetic resonance imaging analysis (EchoMRI-100, Echo Medical Systems, Houston, Tex.), a technique that measures fat mass and lean mass in unanesthetized animals (Kelly S A, et. al., 2010). After completion of 12 weeks of treatment, the mice were sacrificed. Blood was collected by cardiac puncture and allowed to sit for 4 hours before centrifuging at 3500 rpm×15 min. The serum was aspirated and stored at −20° C. until analysis. Abdominal inguinal and visceral fat pads were carefully dissected from each animal according to defined anatomical landmarks. All subcutaneous fat between the lower part of the rib cage and the upper thigh was considered abdominal subcutaneous inguinal fat, whereas all fat found along the mesentery starting at the lesser curvature of the stomach and ending at the sigmoid colon was considered visceral fat. Fat depots were blotted dry prior to weighing. The right inguinal fat pad was dissected separately and the triglyceride content of this tissue was determined by a colorimetric analysis (Pointe Scientific, Canton, Mich.), as previously described (Dann H, Kimura S 1992). Serum adiponectin and leptin were measured by ELISA following manufacturer's instructions (Millipore, Billerica, Mass.).
(§5) Body composition and serum adipokine measurement. Body fat and lean mass were measured at weeks 0 and 12 of treatment by magnetic resonance imaging analysis (EchoMRI-100, Echo Medical Systems, Houston, Tex.), using unanesthetized animals. After 12 weeks of treatment, the mice were sacrificed and blood was collected by cardiac puncture and centrifuged at 3500 rpm×15 min. The serum was stored at −20° C. Abdominal inguinal and visceral fat pads were dissected from each animal according to defined anatomical landmarks. Subcutaneous fat between the rib cage and the upper thigh was termed subcutaneous inguinal fat, whereas all fat from the lesser curvature of the stomach to the sigmoid colon was termed visceral fat. Fat depots were blotted dry prior to weighing. The right inguinal fat pad was dissected separately and the triglyceride content of this tissue was determined by a calorimetric analysis (Pointe Scientific, Canton, Mich. Serum adiponectin and leptin were measured by ELISA following manufacturer's instructions (Millipore, Billerica, Mass.).

IGFBP-2−/− mice [4] = assay: Inguinal and visceral fat pad, liver and heart weights at sacrifice; format: in vivo, mouse; conditions: after 12 weeks; pegylated peptide 50 μg IP 3 times/week; mean±SE
Procedure: as §4, §5

[5] = system: ovariectomized C57B6 normal mice (IGFBP-2 +/+); assay: Body composition MRI analysis in ovariectomized genetically normal mice; format: in vivo, mouse; conditions: for Fat / Body weight: 2.5 mg/kg
Procedure: Experiments were conducted in which the HBD-2 peptide was administered to genetically normal, ovariectomized mice to determine if it would induce fat loss. The purpose of this experiment was to determine if the peptide could alter fat mass in ovariectomized mice. Estrogen deficient mice are known to gain fat mass following removal of the ovaries. Since the peptide had not been tested in an animal model that had not been genetically manipulated and since it had not been tested in a condition wherein fat mass had been acquired previously to determine if it could reduce pre-existing fat mass this experiment was undertaken. The experimental design was as follows.
as §1, §2, §3

[6] = IGFBP-2 +/+ OVX mice, 2.5 mg/kg sc two days per week for four weeks, MRI

For “CKPLRLSKEEHPLK [HBD1 control peptide, scrambled HBD1 peptide, reference compound]”, which “effect on differentiation marker expression / preadipocyte differentiation (in words)” value [1] is on record?
The value was “had no effect”.

How did the “effect on differentiation marker expression / preadipocyte differentiation (in words)” value [1] turn out when “IGF-I: insulin-like growth factor-I added at 100 ng/ml to differentiation medium [reference compound]” was run?
Its value is “no additional effect on cell differentiation”.

For “KHGRYNLKQCKMSLNGQR [Mouse, mouse IGFBP-2 HBD2 peptide]”, which “% suppression of adiponectin” value ([1]; 0.7 μg/ml peptide) is on record?
Its value is 51.2 ± 8.1%.

And the “% suppression of adiponectin” value ([1]; 2.0 μg/ml peptide)?
The value was 85.6 ± 11.4%.

What about the “% suppression of adiponectin” value ([1]; 6.0 μg/ml peptide) of the same molecule?
Its value is 95.5 ± 9.9%.

What about the “relative potency as inhibitor of adipogenesis / preadipocyte differentiation (in words)” value [1] of the same molecule?
The value was “equipotent”.

“Peg HBD2: HBD2 peptide with added cysteine (CKHGLYNLKQCKMSLNGQR), pegylated with methoxy PEG maleimide (C(mPEG‑maleimide)KHGLYNLKQCKMSLNGQR)” was tested. Which Body weight [2] did it give?
Its Body weight is 21.95 ± 0.8 g.

And the Fat % ([2]; MRI)?
The Fat % was 18.75 ± 1.0%.

What about the Lean ([2]; MRI) of the same molecule?
The Lean was 16.97 ± 0.4 g.

And the Total ([2]; MRI)?
The Total was 20.90 ± 0.8 g.

And the Fat ([2]; MRI)?
The Fat was 3.85 g.

And the Fat ([2]; MRI, listed as HBD(pept))?
The Fat was 3.85 ± 0.4 g.

What about the Fat mass increase (IGFBP-2−/− mice [3]) of the same molecule?
The Fat mass increase was 0.58 ± 0.12 g.

What about the Lean mass increase (IGFBP-2−/− mice [3]) of the same molecule?
The Lean mass increase was 3.10 ± 0.57 g.

What about the Inguinal fat (IGFBP-2−/− mice [4]) of the same molecule?
The Inguinal fat was 0.23 ± 0.02 g.

What about the Visceral fat (IGFBP-2−/− mice [4]) of the same molecule?
The Visceral fat was 0.25 ± 0.02 g.

What about the Fat % [5, 6] of the same molecule?
Its Fat % is 19.42 ± 1.1%.

What about the Lean [5, 6] of the same molecule?
The Lean was 17.40 ± 0.3 g.

What about the Total [5, 6] of the same molecule?
The Total was 21.65 ± 0.6 g.

What about the Fat ([5]; IGFBP-2 +/+ OVX mice, 2.5 mg/kg sc two days per week for four weeks, MRI, listed as HBD) of the same molecule?
The Fat was 4.0 ± 0.4 g.

What about the Fat ([5]; IGFBP-2 +/+ OVX mice, 2.5 mg/kg sc two days per week for four weeks, MRI, listed as active peptide) of the same molecule?
The Fat was 4.0 g.

And the Body weight ([5]; IGFBP-2 +/+ OVX mice, 2.5 mg/kg sc two days per week for four weeks, listed as HBD)?
Its Body weight is 23.0 ± 0.8 g.

And the Body weight ([5]; IGFBP-2 +/+ OVX mice, 2.5 mg/kg sc two days per week for four weeks, listed as active peptide)?
The Body weight was 23.0 g.

And the “body weight and total fat mass (in words)” value ([5]; OVX mice, after four weeks of treatment)?
The value was “significantly decreased”.

For “RKGFYKRKQCKPSRGRKR [HBD2 control peptide, reference compound]”, which “effect on differentiation marker expression / preadipocyte differentiation (in words)” value [1] is on record?
The value was “did not affect their expression; also recorded: did not alter their expression”.

B1: native IGFBP-2: native (wild type) insulin-like growth factor binding protein-2; FIG. 2 legend says wild type bovine IGFBP-2 (protein, UniProt P13384 34-317, looked up)
Insulin-like growth …: EVLFRCPPCTPESLAACKPPPGAAAGPAGDARVPCELVREPGCGCCSVCARLEGERCGVYTPRCGQGLRCYPNPGSELPLRALVHGEGTCEKHGDAEYSASPEQVADNGEEHSEGGLVENHVDGNVNLMGGGGGAGRKPLKSGMKELAVFREKVTEQHRQMGKGGKHHLGLEEPKKLRPPPARTPCQQELDQVLERISTMRLPDERGPLEHLYSLHIPNCDKHGLYNLKQCKMSLNGQRGECWCVNPNTGKLIQGAPTIRGDPECHLFYNEQQGARGVHTQRMQ
Which results are given for B1?
relative potency as inhibitor of adipogenesis / preadipocyte differentiation (in words) [1]: most potent inhibitors of adipogenesis; effect on differentiation marker expression / preadipocyte differentiation (in words) [1]: inhibited preadipocyte differentiation into mature adipocytes
